# Reference: patent US20260345596A1, “TREATMENT OF LOCALLY ADVANCED OR METASTATIC UROTHELIAL CARCINOMA WITH ERDAFINITIB” (priority 2023, published 2026)
# Assays:
# [1] = test system: FGFR phosphorylation and signaling; test: FGFR phosphorylation and signaling in cell lines expressing FGFR genetic alterations; format: cell-based; conditions: cell lines with FGFR genetic alterations
# clinical = conditions: human, in vivo, po
# [2] = Excretion after a single oral dose of radiolabeled erdafitinib; conditions: for dose excreted: human, in vivo, po
compound,measurement,setting,value
"COc1cc(OC)cc(N(CCNC(C)C)c2ccc3ncc(-c4cnn(C)c4)nc3c2)c1 [Erdafitinib, N-(3,5-dimethoxyphenyl)-N′-(1-methylethyl)-N-[3-(1-methyl-1H-pyrazol-4-yl)quinoxalin-6-yl]ethane-1,2-diamine]",FGFR phosphorylation and signaling,[1],inhibited FGFR phosphorylation and signaling
same,CL/F,clinical,6.03 mL/min
same,Vd/F,clinical,29 L
same,Solubility in organic solvents,Solubility; organic solvents,"practically insoluble, or insoluble to freely soluble in organic solvents"
same,Solubility across the pH range of 1 to 7.4,Solubility; pH 1 to 7.4,adequate solubility across the pH range of 1 to 7.4
same,Solubility in aqueous media,Solubility; wide range of pH values,"slightly soluble to practically insoluble, or insoluble in aqueous media over a wide range of pH values"
same,Dose recovered in feces,[2],approximately 69%
same,Dose recovered in urine,[2],19%
same,dose excreted,[2]; Dose recovered in feces as unchanged,19%
same,dose excreted,[2]; Dose recovered in urine as unchanged,13%
